Experimental findings from patent publication US9695154B2, “Heteroaryl inhibitors of sumo activating enzyme” (MILLENNIUM PHARMACEUTICALS, INC., priority 2013, dated 2017) are described below.

Where only a bound is given, the exact number is not on record here.

The assay has as its target T1, recombinant human SAE enzyme (Homo sapiens, UniProt Q9UBT2).
T1 sequence (Q9UBT2 1-640): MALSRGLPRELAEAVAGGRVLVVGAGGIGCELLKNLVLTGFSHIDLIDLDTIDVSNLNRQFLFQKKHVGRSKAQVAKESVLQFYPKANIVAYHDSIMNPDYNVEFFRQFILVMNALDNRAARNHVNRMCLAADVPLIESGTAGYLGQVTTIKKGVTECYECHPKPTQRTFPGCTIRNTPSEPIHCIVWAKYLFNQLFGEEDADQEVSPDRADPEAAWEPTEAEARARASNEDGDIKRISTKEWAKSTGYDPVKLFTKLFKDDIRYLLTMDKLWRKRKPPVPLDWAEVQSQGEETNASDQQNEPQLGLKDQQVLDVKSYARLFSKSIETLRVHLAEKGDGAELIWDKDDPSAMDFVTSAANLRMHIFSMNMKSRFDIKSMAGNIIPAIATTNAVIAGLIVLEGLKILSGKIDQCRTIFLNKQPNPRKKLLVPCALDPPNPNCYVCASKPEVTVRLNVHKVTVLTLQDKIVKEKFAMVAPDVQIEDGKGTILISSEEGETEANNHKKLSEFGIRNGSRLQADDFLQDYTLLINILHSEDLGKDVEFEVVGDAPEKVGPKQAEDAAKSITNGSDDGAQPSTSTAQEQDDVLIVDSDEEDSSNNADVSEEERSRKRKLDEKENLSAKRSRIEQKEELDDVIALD
T1 sequence (Q9UBE0 1-346 partner): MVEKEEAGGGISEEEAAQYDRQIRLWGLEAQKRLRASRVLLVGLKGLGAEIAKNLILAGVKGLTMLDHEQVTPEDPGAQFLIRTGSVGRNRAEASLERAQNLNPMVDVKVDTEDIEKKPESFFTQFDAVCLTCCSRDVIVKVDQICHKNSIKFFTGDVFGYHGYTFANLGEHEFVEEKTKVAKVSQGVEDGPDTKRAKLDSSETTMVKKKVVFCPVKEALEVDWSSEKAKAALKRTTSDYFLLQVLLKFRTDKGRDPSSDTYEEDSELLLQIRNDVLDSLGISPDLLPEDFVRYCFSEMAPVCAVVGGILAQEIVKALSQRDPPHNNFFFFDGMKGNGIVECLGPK
The assay can be described thus: SAE HTRF Enzyme Assay. The note with it: for IC50: class symbols A-C; for inhibition at 0.111 µM: read-out: Percent Inhibition. It counts as biochemical. An outline of the steps: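 SAE 0.11 nM; ATP 0.5 μM; Sumo-Flag 0.125 μM; Ubc9-GST 0.01 μM; 250 μM GSH, 5 mM MgCl2, pH 7.5. 105 min, 24° C. EDTA/KF stop plus Eu/APC antibodies, 2 h, TR-FRET. % inhibition or IC50.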

Where [1] appears, read: compound concentration 0.111 μM.

As to `CC(C)(C)C#CCn1ccc(C(=O)c2cncnc2N[C@@H]2C[C@H](COS(N)(=O)=O)[C@@H](O)[C@@H]2F)c1` [Compound I-26, {(1R,2R,3R,4R)-4-[(5-{[1-(4,4-dimethylpent-2-yn-1-yl)-1H-pyrrol-3-yl]carbonyl}pyrimidin-4-yl)amino]-3-fluoro-2-hydroxycyclopentyl}methyl sulfamate], the IC50 (usually the midpoint of a concentration-inhibition curve) is 10 to 100 nM. Further, under setting [1], the inhibition (usually the percentage by which the read-out fell short of the control) at 0.111 µM came to 90%.

For the molecule `NS(=O)(=O)OC[C@H]1C[C@@H](Nc2ncncc2C(=O)c2ccn(C3CCc4ccccc43)n2)[C@H](O)[C@@H]1O` (single isomer, unassigned) [Compound I-353, {(1R,2R,3S,4R)-4-[(5-{[1-((1R)-2,3-dihydro-1H-inden-1-yl)-1H-pyrazol-3-yl]carbonyl}pyrimidin-4-yl)amino]-2,3-dihydroxycyclopentyl}methyl sulfamate or {(1R,2R,3S,4R)-4-[(5-{[1-((1S)-2,3-dihydro-1H-inden-1-yl)-1H-pyrazol-3-yl]carbonyl}pyrimidin-4-yl)amino]-2,3-dihydroxycyclopentyl}methyl sulfamate], the IC50 is 10 to 100 nM. Besides, the “Percent Inhibition” value (compound concentration 0.111 μM, 0.111 µM) amounted to 90%.

As for `NS(=O)(=O)OC[C@H]1C[C@@H](Nc2ncncc2C(=O)c2cc(C(F)(F)F)n(Cc3cccc(Cl)c3)n2)C[C@@H]1O` [Compound I-170, {(1R,2S,4R)-4-[(5-{[1-(3-Chlorobenzyl)-5-(trifluoromethyl)-1H-pyrazol-3-yl]carbonyl}pyrimidin-4-yl)amino]-2-hydroxycyclopentyl}methyl sulfamate], the IC50 was under 10 nM. Moreover, the inhibition at 0.111 µM under setting [1] came to 97%.

For `NS(=O)(=O)OC[C@H]1C[C@@H](Nc2ncncc2C(=O)c2ccn(Cc3ccc(C(F)(F)F)cc3)n2)C[C@@H]1O` [Compound I-171, [(1R,2S,4R)-2-hydroxy-4-{[5-({1-[4-(trifluoromethyl)benzyl]-1H-pyrazol-3-yl}carbonyl)pyrimidin-4-yl]amino}cyclopentyl]methyl sulfamate], the IC50 was under 10 nM. For the same molecule, the inhibition at 0.111 µM under setting [1] was 95%.

`CC(C)Cn1ccc(C(=O)c2cncnc2N[C@@H]2C[C@H](COS(N)(=O)=O)[C@@H](O)[C@H]2O)n1` [Compound I-173, [(1R,2R,3S,4R)-2,3-dihydroxy-4-({5-[(1-isobutyl-1H-pyrazol-3-yl)carbonyl]pyrimidin-4-yl}amino)cyclopentyl]methyl sulfamate]: the concentration for half-maximal inhibition (IC50) lay within 10 to 100 nM. The inhibition at 0.111 µM under setting [1] worked out at 71%.

Take `NS(=O)(=O)OC[C@H]1C[C@@H](Nc2ncncc2C(=O)c2ccn(CC#CCC3CCCC3)n2)C[C@@H]1O` [Compound I-59, {(1R,2S,4R)-4-[(5-{[1-(4-cyclopentylbut-2-yn-1-yl)-1H-pyrazol-3-yl]carbonyl}pyrimidin-4-yl)amino]-2-hydroxycyclopentyl}methyl sulfamate]: the 50% inhibitory concentration (IC50) lay in the range of 10 to 100 nM. Further, the inhibition at 0.111 µM under setting [1] is 70%.

For the molecule `NS(=O)(=O)OC[C@H]1C[C@@H](Nc2ncncc2C(=O)c2ccn(Cc3cc4ccccc4o3)c2)[C@@H](F)[C@@H]1O` [Compound I-110, {(1R,2R,3R,4R)-4-[(5-{[1-(1-benzofuran-2-ylmethyl)-1H-pyrrol-3-yl]carbonyl}pyrimidin-4-yl)amino]-3-fluoro-2-hydroxycyclopentyl}methyl sulfamate], the IC50 was under 10 nM. Besides, the inhibition at 0.111 µM under setting [1] was 99%.

Regarding `NS(=O)(=O)OC[C@H]1C[C@@H](Nc2ncncc2C(=O)c2ccn(Cc3ccc(Cl)c(OC(F)(F)F)c3)n2)[C@@H](F)[C@@H]1O` [Compound I-218, [(1R,2R,3R,4R)-4-{[5-({1-[4-chloro-3-(trifluoromethoxy)benzyl]-1H-pyrazol-3-yl}carbonyl)pyrimidin-4-yl]amino}-3-fluoro-2-hydroxycyclopentyl]methyl sulfamate], the IC50 lay in the range of 10 to 100 nM. Also, the inhibition at 0.111 µM under setting [1] came to 89%.

For the molecule `NS(=O)(=O)OC[C@H]1C[C@@H](Nc2ncncc2C(=O)c2ccn(Cc3cc(C(F)(F)F)ccc3Cl)n2)[C@H](O)[C@@H]1O` [Compound I-268, [(1R,2R,3S,4R)-4-{[5-({1-[2-chloro-5-(trifluoromethyl)benzyl]-1H-pyrazol-3-yl}carbonyl)pyrimidin-4-yl]amino}-2,3-dihydroxycyclopentyl]methyl sulfamate], the IC50 was under 10 nM. In addition, the inhibition at 0.111 µM under setting [1] is 99%.

Take `NS(=O)(=O)OC[C@H]1C[C@@H](Nc2ncncc2C(=O)c2ccn(Cc3cccc(F)c3)n2)[C@H](O)[C@@H]1O` [Compound I-123, {(1R,2R,3S,4R)-4-[(5-{[1-(3-fluorobenzyl)-1H-pyrazol-3-yl]carbonyl}pyrimidin-4-yl)amino]-2,3-dihydroxycyclopentyl}methyl sulfamate]: the IC50 is under 10 nM. Under setting [1], the inhibition at 0.111 µM stood at 100%.

With `NS(=O)(=O)OC[C@H]1C[C@@H](Nc2ncncc2C(=O)c2ccn(CCc3cccc(Br)c3)c2)[C@@H](F)[C@@H]1O` [Compound I-243, [(1R,2R,3R,4R)-4-{[5-({1-[2-(3-bromophenyl)ethyl]-1H-pyrrol-3-yl}carbonyl)pyrimidin-4-yl]amino}-3-fluoro-2-hydroxycyclopentyl]methyl sulfamate], the IC50 was under 10 nM. Further, under setting [1], the inhibition at 0.111 µM amounted to 99%.

As for `NS(=O)(=O)OC[C@H]1C[C@@H](Nc2ncncc2C(=O)c2ccn(Cc3cccc(C(F)(F)F)c3)c2)[C@@H](F)[C@@H]1O` [Compound I-7, [(1R,2R,3R,4R)-3-fluoro-2-hydroxy-4-{[5-({1-[3-(trifluoromethyl)benzyl]-lH-pyrrol-3-yl}carbonyl)pyrimidin-4-yl]amino}cyclopentyl]methyl sulfamate], the IC50 was under 10 nM. The inhibition at 0.111 µM under setting [1] was determined as 99%.

For `NS(=O)(=O)OC[C@H]1C[C@@H](Nc2ncncc2C(=O)c2ccn(Cc3cccc(Br)n3)n2)C[C@@H]1O` [Compound I-352, [(1R,2S,4R)-4-{[5-({1-[(6-bromopyridin-2-yl)methyl]-1H-pyrazol-3-yl}carbonyl)pyrimidin-4-yl]amino}-2-hydroxycyclopentyl]methyl sulfamate], the IC50 is under 10 nM. For the same molecule, under setting [1], the inhibition at 0.111 µM was found to be 99%.

For `NS(=O)(=O)OC[C@H]1C[C@@H](Nc2ncncc2C(=O)c2ccn(Cc3cccc(I)c3)c2)[C@@H](F)[C@@H]1O` [Compound I-13, {(1R,2R,3R,4R)-3-fluoro-2-hydroxy-4-[(5-{[1-(3-iodobenzyl)-1H-pyrrol-3-yl]carbonyl}pyrimidin-4-yl)amino]cyclopentyl}methyl sulfamate], the IC50 was under 10 nM. In addition, the inhibition at 0.111 µM under setting [1] worked out at 100%.

For the molecule `NS(=O)(=O)OC[C@H]1C[C@@H](Nc2ncncc2C(=O)c2ccn(Cc3ccc(F)cc3F)n2)[C@H](O)[C@@H]1O` [Compound I-336, {(1R,2R,3S,4R)-4-[(5-{[1-(2,4-difluorobenzyl)-1H-pyrazol-3-yl]carbonyl}pyrimidin-4-yl)amino]-2,3-dihydroxycyclopentyl}methyl sulfamate], the IC50 is under 10 nM. The inhibition at 0.111 µM under setting [1] came to 97%.

As for `NS(=O)(=O)OC[C@H]1C[C@@H](Nc2ncncc2C(=O)c2cc(Br)n(Cc3cccc(Br)c3)c2)[C@@H](F)[C@@H]1O` [Compound I-272, {(1R,2R,3R,4R)-4-[(5-{[5-bromo-1-(3-bromobenzyl)-1H-pyrrol-3-yl]carbonyl}pyrimidin-4-yl)amino]-3-fluoro-2-hydroxycyclopentyl}methyl sulfamate], the IC50 was under 10 nM. Besides, under setting [1], the inhibition at 0.111 µM turned out to be 99%.

Turning to `C#CCn1ccc(C(=O)c2cncnc2N[C@@H]2C[C@H](COS(N)(=O)=O)[C@@H](O)C2)c1` [Compound I-330, {(1R,2S,4R)-2-hydroxy-4-[(5-{[1-{prop-2-yn-1-yl)-1H-pyrrol-3-yl]carbonyl}pyrimidin-4-yl)amino]cyclopentyl}methyl sulfamate], the IC50 fell in the range of 10 to 100 nM. Further, under setting [1], the inhibition at 0.111 µM amounted to 82%.

On to `NS(=O)(=O)OC[C@H]1C[C@@H](Nc2ccncc2C(=O)c2ccn(Cc3cccc(Cl)c3)c2)[C@@H](F)[C@@H]1O` [Compound I-124, {(1R,2R,3R,4R)-4-[(3-{[1-(3-chlorobenzyl)-1H-pyrrol-3-yl]carbonyl}pyridin-4-yl)amino]-3-fluoro-2-hydroxycyclopentyl}methyl sulfamate], for which the IC50 was under 10 nM. Moreover, the inhibition at 0.111 µM under setting [1] was found to be 97%.
